Like-named read-outs stand apart in the source and are kept apart here.
Tests used:
[1] = tested on: ducksalad; experiment: Test B flooded paddy test; format: in vivo, Heteranthera limosa; conditions: Heteranthera limosa, 336 h, 1000 g ai/ha, visual rating, scale 0 to 100 (0 no effect, 100 complete control), 13 to 15 days, read-out: Ducksalad plant response rating
How it was run: (§1)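 After treating 2-leaf paddy plants or 2–18 cm postemergence plants (1 to 4 leaves) with formulated chemical, researchers kept them in a greenhouse for 13–15 days. Effects were judged visually versus controls: 0 indicates none, 100 total control.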

[2] = tested on: large crabgrass; experiment: Test B pre-/postemergence herbicide test; format: in vivo, Digitaria sanguinalis; conditions: Digitaria sanguinalis; for pest or weed control at 125 g/ha: 125 g ai/ha; for pest or weed control at 500 g/ha: 500 g ai/ha
How it was run: (§2)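 Plants compared with untreated controls 13–15 days post-treatment and given a visual 0–100 injury score. Applications: preemergence to seeds; postemergence at 1- to 4-leaf (2–18 cm); paddy species flooded, 2-leaf stage. Vehicle non-phytotoxic, surfactant included.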

[3] = tested on: barnyardgrass; experiment: Test B pre-/postemergence herbicide test; format: in vivo, Echinochloa crus-galli; conditions: Echinochloa crus-galli; for pest or weed control at 125 g/ha: 125 g ai/ha; for pest or weed control at 500 g/ha: 500 g ai/ha
How it was run: (§3)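 Flooded paddy rice and barnyardgrass were treated at the 2-leaf stage; upland plantings received compound either on sown seed or on 1- to 4-leaf seedlings. All were kept 13–15 days in a greenhouse and scored visually, 0–100, relative to untreated plants.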

[4] = tested on: giant foxtail; experiment: Test B pre-/postemergence herbicide test; format: in vivo, Setaria faberi; conditions: Setaria faberi, 336 h; for pest or weed control at 125 g/ha: 125 g ai/ha; for pest or weed control at 500 g/ha: 500 g ai/ha
How it was run: as §2

[5] = tested on: cocklebur; experiment: Test B pre-/postemergence herbicide test; format: in vivo, Xanthium strumarium; conditions: Xanthium strumarium; for pest or weed control at 125 g/ha: 125 g ai/ha; for pest or weed control at 500 g/ha: 500 g ai/ha
How it was run: as §3

[6] = tested on: morningglory; experiment: Test B pre-/postemergence herbicide test; format: in vivo, Ipomoea coccinea; conditions: Ipomoea, 336 h, visual rating; for pest or weed control at 500 g/ha: 500 g ai/ha
How it was run: as §3

[7] = tested on: corn; experiment: Test B pre-/postemergence herbicide test; format: in vivo, Zea mays; conditions: Zea mays; for plant injury at 125 g/ha: 125 g ai/ha
How it was run: as §2

[8] = tested on: Surinam grass; experiment: Test B pre-/postemergence herbicide test; format: in vivo, Urochloa decumbens; conditions: Urochloa decumbens; for pest or weed control at 125 g/ha: 125 g ai/ha; for pest or weed control at 500 g/ha: 500 g ai/ha
How it was run: as §2

[9] = tested on: rice; experiment: Test B flooded paddy test; format: in vivo, Oryza sativa; conditions: Oryza sativa, 336 h, 1000 g ai/ha, visual rating, scale 0 to 100 (0 no effect, 100 complete control), 13 to 15 days, read-out: Rice plant response rating
How it was run: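 Formulated test chemicals went onto postemergence plants measuring 2 to 18 cm, at one to four leaves. For the paddy assay, species had reached two leaves. Scoring took place 13–15 days later by eye, relative to untreated plants, using 0 for no effect up to 100 for full control.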

[10] = tested on: wild oat; experiment: Test B postemergence herbicide test; format: in vivo, Avena fatua; conditions: Avena fatua, post-emergence, 336 h, postemergence, visual rating, scale 0 (no effect) to 100 (complete control), read-out: Oat, Wild plant response rating
How it was run: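 Treated at 2-leaf (paddy) or 1–4-leaf, 2–18 cm (postemergence); greenhouse 13–15 d; visual score vs control, 0 none to 100 complete control; dash = not tested.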

[11] = tested on: pigweed; experiment: Test B pre-/postemergence herbicide test; format: in vivo, Amaranthus retroflexus; conditions: Amaranthus retroflexus, 336 h; for pest or weed control at 125 g/ha: 125 g ai/ha; for pest or weed control at 500 g/ha: 500 g ai/ha
How it was run: as §2

[12] = tested on: small flower umbrella sedge; experiment: Test B flooded paddy test; format: in vivo, Cyperus difformis; conditions: Cyperus difformis, 336 h, 1000 g ai/ha, visual rating, scale 0 to 100 (0 no effect, 100 complete control), 13 to 15 days, read-out: Sedge, Umbrella plant response rating
How it was run: as §1

[13] = tested on: lambsquarters; experiment: Test B pre-/postemergence herbicide test; format: in vivo, Chenopodium album; conditions: Chenopodium album, 336 h; for pest or weed control at 125 g/ha: 125 g ai/ha; for pest or weed control at 500 g/ha: 500 g ai/ha
How it was run: as §2

[14] = tested on: blackgrass; experiment: Test B postemergence herbicide test; format: in vivo, Alopecurus myosuroides; conditions: Alopecurus myosuroides, post-emergence, 336 h, postemergence, visual rating, scale 0 (no effect) to 100 (complete control), read-out: Blackgrass plant response rating
How it was run: as §1

[15] = tested on: velvetleaf; experiment: Test B pre-/postemergence herbicide test; format: in vivo, Abutilon theophrasti; conditions: Abutilon theophrasti, 336 h; for pest or weed control at 125 g/ha: 125 g ai/ha; for pest or weed control at 500 g/ha: 500 g ai/ha
How it was run: as §2

[16] = post-emergence, postemergence, visual rating, scale 0 (no effect) to 100 (complete control), read-out: Crabgrass, Large plant response rating
[17] = post-emergence, postemergence, visual rating, scale 0 (no effect) to 100 (complete control), read-out: Barnyardgrass plant response rating
[18] = post-emergence, postemergence, visual rating, scale 0 (no effect) to 100 (complete control), read-out: Foxtail, Giant plant response rating
[19] = post-emergence, postemergence, visual rating, scale 0 (no effect) to 100 (complete control), read-out: Cocklebur plant response rating
[20] = post-emergence, postemergence, visual rating, scale 0 (no effect) to 100 (complete control), read-out: Surinam Grass plant response rating
[21] = post-emergence, postemergence, visual rating, scale 0 (no effect) to 100 (complete control), read-out: Pigweed plant response rating
[22] = post-emergence, postemergence, visual rating, scale 0 (no effect) to 100 (complete control), read-out: Lambsquarters plant response rating
[23] = post-emergence, postemergence, visual rating, scale 0 (no effect) to 100 (complete control), read-out: Velvetleaf plant response rating

Question: Which pest or weed control at 1000 g/ha [1] does the source give for `CCc1nn(C(C)(C)C)cc1C(=O)Nc1cc(C(=O)N(C)C)ccc1F` [Compound 222, N-[5-[(dimethylamino)carbonyl]-2-fluorophenyl]-1-(1,1-dimethylethyl)-3-ethyl-1H-pyrazole-4-carboxamide] here?
Answer: 80%

Question: What about the pest or weed control at 125 g/ha [2, 16] of the same compound?
Answer: 10%

Question: What about the pest or weed control at 500 g/ha [2, 16] of the same compound?
Answer: 20%

Question: And the pest or weed control at 125 g/ha ([2]; pre-emergence, 0 = no effect, 100 = complete control, read-out: Crabgrass, Large plant response rating (0 to 100 scale))?
Answer: 90%

Question: And the pest or weed control at 500 g/ha ([2]; pre-emergence, visual rating, 0 = no effect, 100 = complete control, read-out: Plant response rating, Crabgrass, Large)?
Answer: 100%

Question: And the pest or weed control at 125 g/ha [3, 17]?
Answer: 10%

Question: What about the pest or weed control at 500 g/ha [3, 17] of the same compound?
Answer: 20%

Question: What about the pest or weed control at 125 g/ha ([3]; pre-emergence, 0 = no effect, 100 = complete control, read-out: Barnyardgrass plant response rating (0 to 100 scale)) of the same compound?
Answer: 90%

Question: And the pest or weed control at 500 g/ha ([3]; pre-emergence, visual rating, 0 = no effect, 100 = complete control, read-out: Plant response rating, Barnyardgrass)?
Answer: 100%

Question: And the pest or weed control at 125 g/ha [4, 18]?
Answer: 10%

Question: And the pest or weed control at 500 g/ha [4, 18]?
Answer: 30%

Question: And the pest or weed control at 125 g/ha ([4]; pre-emergence, 0 = no effect, 100 = complete control, read-out: Foxtail, Giant plant response rating (0 to 100 scale))?
Answer: 60%

Question: What about the pest or weed control at 500 g/ha ([4]; pre-emergence, visual rating, 0 = no effect, 100 = complete control, read-out: Plant response rating, Foxtail, Giant) of the same compound?
Answer: 90%

Question: What about the pest or weed control at 125 g/ha [5, 19] of the same compound?
Answer: 20%

Question: What about the pest or weed control at 500 g/ha [5, 19] of the same compound?
Answer: 60%

Question: And the pest or weed control at 125 g/ha ([5]; pre-emergence, 0 = no effect, 100 = complete control, read-out: Cocklebur plant response rating (0 to 100 scale))?
Answer: 30%

Question: What about the pest or weed control at 500 g/ha ([5]; pre-emergence, visual rating, 0 = no effect, 100 = complete control, read-out: Plant response rating, Cocklebur) of the same compound?
Answer: 80%

Question: And the pest or weed control at 125 g/ha ([6]; post-emergence, postemergence, 125 g ai/ha, scale 0 (no effect) to 100 (complete control), read-out: Morningglory plant response rating)?
Answer: 40%

Question: What about the pest or weed control at 500 g/ha ([6]; post-emergence, postemergence, scale 0 (no effect) to 100 (complete control), read-out: Morningglory plant response rating) of the same compound?
Answer: 80%

Question: What about the pest or weed control at 500 g/ha ([6]; pre-emergence, 0 = no effect, 100 = complete control, read-out: Plant response rating, Morningglory) of the same compound?
Answer: 100%

Question: What about the plant injury at 125 g/ha ([7]; post-emergence, postemergence, visual rating, scale 0 (no effect) to 100 (complete control), read-out: Corn plant response rating) of the same compound?
Answer: 0%

Question: And the plant injury at 500 g/ha ([7]; post-emergence, postemergence, 500 g ai/ha, visual rating, scale 0 (no effect) to 100 (complete control), read-out: Corn plant response rating)?
Answer: 20%

Question: And the plant injury at 125 g/ha ([7]; pre-emergence, 0 = no effect, 100 = complete control, read-out: Corn plant response rating (0 to 100 scale))?
Answer: 60%

Question: And the Corn plant response rating (crop injury, 0 = no effect, 100 = complete kill) at 500 g/ha ([7]; pre-emergence, 500 g ai/ha, visual rating, 0 = no effect, 100 = complete control)?
Answer: 90%

Question: What about the pest or weed control at 125 g/ha [8, 20] of the same compound?
Answer: 10%

Question: And the pest or weed control at 500 g/ha [8, 20]?
Answer: 30%

Question: And the pest or weed control at 125 g/ha ([8]; pre-emergence, 0 = no effect, 100 = complete control, read-out: Surinam Grass plant response rating (0 to 100 scale))?
Answer: 90%

Question: What about the pest or weed control at 500 g/ha ([8]; pre-emergence, visual rating, 0 = no effect, 100 = complete control, read-out: Plant response rating, Surinam Grass) of the same compound?
Answer: 100%

Question: And the plant injury at 1000 g/ha [9]?
Answer: 90%

Question: What about the pest or weed control at 125 g/ha ([10]; 125 g ai/ha) of the same compound?
Answer: 0%

Question: What about the pest or weed control at 500 g/ha ([10]; 500 g ai/ha) of the same compound?
Answer: 20%

Question: What about the pest or weed control at 125 g/ha [11, 21] of the same compound?
Answer: 40%

Question: And the pest or weed control at 500 g/ha [11, 21]?
Answer: 60%

Question: What about the pest or weed control at 125 g/ha ([11]; pre-emergence, 0 = no effect, 100 = complete control, read-out: Pigweed plant response rating (0 to 100 scale)) of the same compound?
Answer: 90%

Question: What about the pest or weed control at 500 g/ha ([11]; pre-emergence, visual rating, 0 = no effect, 100 = complete control, read-out: Plant response rating, Pigweed) of the same compound?
Answer: 100%

Question: And the pest or weed control at 1000 g/ha [12]?
Answer: 70%

Question: What about the pest or weed control at 125 g/ha [13, 22] of the same compound?
Answer: 50%

Question: What about the pest or weed control at 500 g/ha [13, 22] of the same compound?
Answer: 70%

Question: And the pest or weed control at 125 g/ha ([13]; pre-emergence, 0 = no effect, 100 = complete control, read-out: Lambsquarters plant response rating (0 to 100 scale))?
Answer: 100%

Question: What about the pest or weed control at 500 g/ha ([13]; pre-emergence, visual rating, 0 = no effect, 100 = complete control, read-out: Plant response rating, Lambsquarters) of the same compound?
Answer: 100%

Question: What about the pest or weed control at 125 g/ha ([14]; 125 g ai/ha) of the same compound?
Answer: 0%

Question: What about the pest or weed control at 500 g/ha ([14]; 500 g ai/ha) of the same compound?
Answer: 20%

Question: And the pest or weed control at 125 g/ha [15, 23]?
Answer: 50%

Question: And the pest or weed control at 500 g/ha [15, 23]?
Answer: 60%

Question: What about the pest or weed control at 125 g/ha ([15]; pre-emergence, 0 = no effect, 100 = complete control, read-out: Velvetleaf plant response rating (0 to 100 scale)) of the same compound?
Answer: 100%

Question: And the pest or weed control at 500 g/ha ([15]; pre-emergence, visual rating, 0 = no effect, 100 = complete control, read-out: Plant response rating, Velvetleaf)?
Answer: 100%
